Results: patent US20250145589A1, “PYRIDINE DERIVATIVE AND USE THEREOF” (SICHUAN HUIYU PHARMACEUTICAL CO., LTD., priority 2021, published 2025)

Key:
[1] = biological target: PI3Kα (Homo sapiens (Human), UniProt P42336); assay: Inhibition of PI3Kα efficacy assay (ADP-Glo kinase assay); format: biochemical; conditions: Table 4; read-out: PI3Kα inhibitory activity (IC50)
In short: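 Eight five-fold dilutions of compound (2 mM DMSO stock) tested; kinase reaction with PI and ATP ran 60 min at RT, followed by ADP-Glo and detection reagent steps of 40 min each. Four-parameter logistic fitting gave IC50 values.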

[2] = test system: NCI-H358 cells (KRAS G12C mutant); assay: NCI-H358 cell proliferation inhibition (CellTiter-Glo); format: cell-based; conditions: Homo sapiens, NCI-H358, 72 h; H358 cells (G12C mutation), 3 days, Table 6; read-out: NCI-H358 (IC50)
[3] = test system: MIA PaCa-2 cells (KRAS G12C mutant); assay: MIA PaCa-2 cell anti-proliferation (CellTiter-Glo); format: cell-based; conditions: Homo sapiens, 72 h; MIA Paca-2 cells, 3 days, Table 7; read-out: MIA PaCa-2 (IC50)
Experimental: The number of viable cells was determined using the CellTiter-Glo® assay to evaluate the anti-proliferation efficacy of compounds. […] The compounds were serially diluted 4-fold in DMSO to obtain 9 concentrations, and then further diluted with DMEM (10% FBS+2.5% horse serum+1% penicillin/streptomycin) cell culture medium to obtain the working solutions (2×), 15 μL of each working solution was added to the cell culture supernatant in each well, and the cells were further incubated for 3 days at 37° C. with 5% CO2. The plate was then equilibrated with CellTiter-Glo® reagent at room temperature (25° C.) for 30 minutes. After adding 25 μL of CellTiter-Glo®, reagent, the cells were thoroughly mixed with the CellTiter-Glo® reagent using a microplate shaker for 2 minutes, and then incubated at room temperature for at least 30 minutes. […] Data were analyzed using GraphPad Prism for IC50 values (Note: The negative control refers to the group without inhibitor).

Chain of PI3Kα (P42336 whole entry): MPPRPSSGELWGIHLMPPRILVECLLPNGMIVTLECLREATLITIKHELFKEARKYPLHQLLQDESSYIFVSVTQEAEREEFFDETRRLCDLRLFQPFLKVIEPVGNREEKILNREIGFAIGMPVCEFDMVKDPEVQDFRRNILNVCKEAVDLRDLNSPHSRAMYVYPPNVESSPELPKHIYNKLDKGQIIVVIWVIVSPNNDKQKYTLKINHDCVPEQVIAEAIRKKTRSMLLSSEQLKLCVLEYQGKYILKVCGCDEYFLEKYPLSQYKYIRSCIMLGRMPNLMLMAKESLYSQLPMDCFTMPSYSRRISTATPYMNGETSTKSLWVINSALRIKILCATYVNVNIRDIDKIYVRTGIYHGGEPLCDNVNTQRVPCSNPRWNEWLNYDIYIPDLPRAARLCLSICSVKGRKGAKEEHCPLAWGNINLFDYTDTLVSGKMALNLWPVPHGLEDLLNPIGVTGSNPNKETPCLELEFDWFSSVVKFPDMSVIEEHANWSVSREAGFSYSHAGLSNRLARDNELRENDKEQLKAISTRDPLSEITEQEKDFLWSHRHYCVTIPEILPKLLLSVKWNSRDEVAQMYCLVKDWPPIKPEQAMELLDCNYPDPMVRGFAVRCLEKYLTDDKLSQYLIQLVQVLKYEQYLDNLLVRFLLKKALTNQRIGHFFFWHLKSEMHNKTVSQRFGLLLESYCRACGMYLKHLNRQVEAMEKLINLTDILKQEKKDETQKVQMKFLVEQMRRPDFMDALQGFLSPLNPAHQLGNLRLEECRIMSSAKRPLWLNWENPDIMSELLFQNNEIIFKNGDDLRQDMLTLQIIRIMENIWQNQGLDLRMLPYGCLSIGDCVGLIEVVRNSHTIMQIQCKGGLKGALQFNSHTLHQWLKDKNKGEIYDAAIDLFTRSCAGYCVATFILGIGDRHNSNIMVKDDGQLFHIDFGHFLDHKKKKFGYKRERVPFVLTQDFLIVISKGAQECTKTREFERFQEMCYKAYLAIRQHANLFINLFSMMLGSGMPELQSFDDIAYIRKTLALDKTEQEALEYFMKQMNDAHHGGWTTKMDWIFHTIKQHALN
Chain of PI3Kα (P27986 whole entry partner): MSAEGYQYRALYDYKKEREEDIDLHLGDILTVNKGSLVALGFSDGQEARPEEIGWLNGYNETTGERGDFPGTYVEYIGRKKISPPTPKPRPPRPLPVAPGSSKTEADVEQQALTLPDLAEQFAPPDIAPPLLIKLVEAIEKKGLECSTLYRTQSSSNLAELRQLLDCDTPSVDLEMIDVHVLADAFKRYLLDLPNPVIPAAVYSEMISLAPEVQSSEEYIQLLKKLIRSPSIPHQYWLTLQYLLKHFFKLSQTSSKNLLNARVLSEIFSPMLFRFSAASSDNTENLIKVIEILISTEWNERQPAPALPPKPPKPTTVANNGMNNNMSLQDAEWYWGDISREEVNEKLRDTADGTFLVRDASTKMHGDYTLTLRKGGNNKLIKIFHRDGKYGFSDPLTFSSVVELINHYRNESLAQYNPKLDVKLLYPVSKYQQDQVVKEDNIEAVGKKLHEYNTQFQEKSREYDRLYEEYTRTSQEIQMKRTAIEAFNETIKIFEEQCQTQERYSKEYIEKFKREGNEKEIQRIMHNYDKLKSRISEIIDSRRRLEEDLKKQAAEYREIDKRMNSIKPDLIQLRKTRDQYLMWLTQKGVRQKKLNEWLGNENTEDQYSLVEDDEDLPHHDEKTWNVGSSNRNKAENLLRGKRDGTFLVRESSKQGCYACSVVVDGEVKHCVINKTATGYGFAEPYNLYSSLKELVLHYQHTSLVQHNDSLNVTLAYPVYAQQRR

Compound | IC50 [1] [nM] | IC50 [2] [nM] | IC50 [3] [nM]
CSc1ncc(-c2ccc3ncnc(N4CCN(C(=O)/C=C/C(C)=O)CC4)c3c2)cc1NS(=O)(=O)c1ccc(F)cc1F [Example 182, (E)-2,4-difluoro-N-(2-(methylthio)-5-(4-(4-(4-oxopent-2-enoyl)piperazin-1-yl)quinazolin-6-yl)pyridin-3-yl)benzene-sulfonamide] | 0.65 | 228 | 202
COc1ncc(-c2ccc3ncnc(N4CCN(C(=O)/C=C\C(=O)C(F)(F)F)CC4)c3c2)cc1NS(=O)(=O)c1ccc(F)cc1F [Example 248, (Z)-2,4-difluoro-N-(2-methoxy-5-(4-(4-(5,5,5-trifluoro-4-oxopent-2-enoyl)piperazin-1-yl)quinazolin-6-yl)pyridin-3-yl)benzenesulfonamide] | 2.3 | 115 | 44.1
COc1ncc(-c2cc(F)c3ncnc(N4CCN(C(=O)/C=C/C(C)=O)CC4)c3c2)cc1NS(=O)(=O)c1ccc(F)cc1F [Example 196, (E)-2,4-difluoro-N-(5-(8-fluoro-4-(4-(4-oxopent-2-enoyl)piperazin-1-yl)quinazoline-6-yl)-2-methoxypyridin-3-yl)benzenesulfonamide] | 1.7 | 186 | 155
CC(=O)/C=C/C(=O)N1CCN(c2ncnc3ccc(-c4cnc(OC(F)F)c(NS(=O)(=O)c5ccc(F)cc5F)c4)cc23)CC1 [Example 208, (E)-N-(2-(difluoromethoxy)-5-(4-(4-(4-oxopent-2-enoyl)piperazin-1-yl)quinazoline-6-yl)pyridin-3-yl)-2,4-difluorobenzenesulfonamide] | 30.6 | 1060 | 1040

Now those with a lower IC50 [2], led by results:

IC50 [1] [nM] | IC50 [2] [nM] | IC50 [3] [nM] | Compound
2.4 | 83.5 | 76.2 | CCOc1ncc(-c2ccc3ncnc(N4CCN(C(=O)/C=C/C(C)=O)CC4)c3n2)cc1NS(=O)(=O)c1ccccc1F [Example 227, (E)-N-(2-ethoxy-5-(4-(4-(4-oxopent-2-enoyl)piperazin-1-yl)pyrido[3,2-d]pyrimidin-6-yl)pyridin-3-yl)-2-fluorobenzene-sulfonamide]
1 | 56 | 47.7 | COc1ncc(-c2ccc3ncnc(N4CCN(C(=O)/C=C/C(F)(F)F)CC4)c3n2)cc1NS(=O)(=O)c1c(F)cccc1F [Example 216, (E)-2,6-difluoro-N-(2-methoxy-5-(4-(4-(4,4,4-trifluorobut-2-enoyl)piperazin-1-yl)pyridino [3,2-d]pyrimidin-6-yl)pyridin-3-yl)benzene-sulfonamide]
5 | 48.7 | 55.2 | COc1ncc(-c2ccc3ncnc(C4=CCN(C(=O)/C=C/C(C)=O)CC4)c3n2)cc1NS(=O)(=O)c1ccc(F)cc1F [Example 240, (E)-2,4-difluoro-N-(2-methoxy-5-(4-(1-(4-oxopent-2-enoyl)-1,2,3,6-tetrahydropyridin-4-yl)pyrido[3,2-d]pyrimidin-6-yl)pyridin-3-yl)benzenesulfonamide]
– | 40 | 73.3 | C=CS(=O)(=O)N1CCN(c2ncnc3ccc(-c4cnc(OC)c(NS(=O)(=O)c5ccc(F)cc5F)c4)cc23)CC1 [Example 207, 2,4-difluoro-N-(2-methoxy-5-(4-(4-(vinylsulfonyl)piperazin-1-yl)quinazolin-6-yl)pyridin-3-yl)benzenesulfonamide]
9.8 | 14.3 | 16.4 | COc1ncc(-c2ccc3ncnc(N4CCN(C(=O)/C=C/CF)CC4)c3n2)cc1NS(=O)(=O)c1c(F)cccc1F [Example 213, (E)-2,6-difluoro-N-(5-(4-(4-(4-fluorobut-2-enoyl)piperazin-1-yl)pyrido[3,2-d]pyrimidine-6-yl)-2-methoxy-pyridin-3-yl) benzene-sulfonamide]
1.7 | 12.8 | 10.4 | C=C(F)C(=O)N1CCN(c2ncnc3ccc(-c4cnc(OC)c(NS(=O)(=O)c5c(F)cccc5F)c4)nc23)CC1 [Example 211, 2,6-difluoro-N-(5-(4-(4-(2-fluoroacryloyl)piperazin-1-yl)pyrido[3,2-d]pyrimidin-6-yl)-2-methoxy-pyridin-3-yl)benzene-sulfonamide]
